Source: patent publication US20250034158A1, “TEXAPHYRIN DERIVATIVES FOR MANGANESE CHEMOTHERAPY, PHOTOACOUSTIC IMAGING, AND PHOTOTHERMAL THERAPY” (BOARD OF REGENTS, THE UNIVERSITY OF TEXAS SYSTEM, priority 2020, published 2025)

Experiments:
[1] = Photostability under photoirradiation (UV-Vis absorption over time); format: physicochemical; settings: fluence ~18 mJ/cm^2
Excerpt: Measurements were taken at 5-minute intervals. Fluence: 20 mJ/cm^2. Laser wavelength: 780 nm.
Measurements were taken at 5-minute intervals. Fluence: 20 mJ/cm^2. Laser wavelength: 725 nm.
Measurements were taken at 5-minute intervals. Fluence: 20 mJ/cm^2. Laser wavelength: 740 nm.
Photostability is also relevant factor to consider for a potential PA contrast agent for clinical applications.

[2] = system: C4-2 tumor; assay: In vivo PA imaging, prostate tumor mouse model, tail vein injection; settings: 500 μM, 200 μL, 5 μmol/kg, after 24 h
Description: (§1) Male BALB/c nude mice (18±2 g, 4-6 weeks old) were purchased from a commercial source and used according to standard animal guidelines for the care and use of laboratory animals with appropriate ethical oversight board approval.
Human prostate cancer cell lines C4-2 were purchased from commercial sources and cultured in Dulbecco's Modified Eagle Medium (DMEM) (Life Technologies, NY, USA) supplemented with 10% fetal bovine serum (FBS; Cyclone, UT, USA). Cells were incubated at 37° C. in a humidified atmosphere containing 5% CO2. For C4-2 tumor inoculation, C4-2 cells (˜1×10^6) suspended in PBS were injected under the nude mice epidermis of the right flank. Animals were observed every day for any behavioral abnormalities. […]
(§2) An optical parametric oscillator (OPO) laser source (Innolas GmbH, Bonn, Germany) emitting 8 ns pulsed lasers was coupled to a multimode optical fiber with a 1500 μm core diameter for the photoacoustic signal excitation. […] This led to the vibration of the tissue, which generated ultrasonic waves that could be recorded by a commercial 128-element linear array transrectal ultrasound transducer. […]
To test further the PA imaging potential of MMn, in vivo experiments were performed using a prostate tumor mouse model as shown in FIG. 19. […] Normalized PA intensity values were then calculated. […]

[3] = system: C4-2 tumor; assay: In vivo stability of PA signal after direct injection at the tumor site; set-up: species or system mouse; settings: 250 μM, 50 μL, 0.625 μmol/kg, direct injection into tumor, 0-60 min
Description: Laser light was used to illuminate the tumor during data collection: 800 nm, 20 mJ for ICG and 725 nm, 20 mJ for MMn.
Laser wavelength: 800 nm, Laser fluence: 20 mJ/cm^2. Percentage of PA signal after 1 hour=46%
Laser wavelength: 725 nm, Laser fluence: 20 mJ/cm^2. Percentage of PA signal after 1 hour=91%
as §1
Human prostate cancer cell lines C4-2 were purchased from commercial sources and cultured in Dulbecco's Modified Eagle Medium (DMEM) (Life Technologies, NY, USA) supplemented with 10% fetal bovine serum (FBS; Cyclone, UT, USA). […]
as §2
To confirm the in vivo stability of MMn for PA imaging, MMn was injected directly at the tumor site and the PA signal was measured over time (0-60 mins) with concurrent US imaging. […]

For `CC1(C)C(/C=C/C=C/C=C/C=C2\N(CCCCS(=O)(=O)O)c3ccc4ccccc4c3C2(C)C)=[N+](CCCCS(=O)(=O)[O-])c2ccc3ccccc3c21` [ICG, Indocyanine green], the “change in absorption at 780 nm over photoirradiation” value ([1]; 40 μM, 30 minutes) was 90%, the photostability upon photoirradiation ([1]; ICG: 100 μM, 20 minutes, 780 nm) was “poor photostability” and the “increase in normalized PA signal intensity at the tumor site relative to pre-injection” value [2] was “No significant increase”. The “PA signal remaining at tumor site after 1 hour” value [3] was 46%.
